Reference: PMC6514996, “Discovery of Potent and Selective Halogen-Substituted Imidazole-Thiosemicarbazides for Inhibition of Toxoplasma gondii Growth In Vitro via Structure-Based Design” (Molecules, 2019)
≈ marks a conversion by molar mass, not a printed value.

Assays:
[1] = system: Toxoplasma gondii tachyzoites; parameters: method as in PMID 30744161; conditions: ref [19], cited from earlier work; for IC50: inhibition of T. gondii tachyzoite proliferation, previous study; for SR (selectivity ratio): ratio of CC50 to IC50, previous study
[2] = system: Toxoplasma gondii RH strain tachyzoites (ATCC PRA 310); assay: Influence on T. gondii proliferation in Hs27 cells, [3H]-uracil incorporation assay; format: cell-based; conditions: for IC50: Toxoplasma gondii, HS27, 50% inhibition of T. gondii RH proliferation in vitro, Hs27 host cells, [3H]-uracil incorporation; for SR (selectivity ratio): ratio of CC50 (L929) to IC50 (T. gondii)
[3] = Cytotoxicity against L929 cells, MTT cell viability assay (ISO 10993-5:2009(E)); format: cell-based; conditions: mouse, L929 mouse fibroblast cells; for viability at 24 h, 5 µg/mL / viability at 24 h, 25 µg/mL / viability at 24 h, 50 µg/mL / viability at 24 h, 125 µg/mL / viability at 24 h, 250 µg/mL / viability at 24 h, 500 µg/mL / viability at 24 h, 1000 µg/mL: read-out: viability of L929 cells (% of viable cells); for CC50 at 24 h: 50% cell proliferation inhibition, L929 cells
Excerpt: Since T. gondii is an obligate intracellular parasite that requires invasion of mammalian host cells to proliferate, compounds that inhibit parasite growth might be toxic to host cells as well. Therefore, as an initial indicator for host cell toxicity, we firstly evaluated compounds 5–16 for their ability to inhibit the growth of mouse fibroblast (L929) cells line according to the international standards: ISO 10993-5:2009(E).
To calculate the reduction of viability compared to the untreated blank the equation was used: viability (%) = 100% × sample OD570 (the mean value of the measured optical density of the treated cells)/blank OD570 (the mean value of the measured optical density of the untreated cells). CC50—represents the concentration of tested compounds that was required for a 50% cell proliferation inhibition in vitro. The effect of the tested compounds on the cell lines was measured using MTT assay according to the international standard: ISO 10993-5:2009(E). CC50 values were determined based on the plotted curves using GraphPad Prism program (version 8.0.1).
Cell culture: the L929 mouse fibroblast (ATTC® CCL-1™) was routinely cultured in IMDM (Iscove’s Modified Dulbecco Medium, Biowest, Nuaille, France), supplemented with 10% HIFBS, 100 U/mL penicillin and 100 μg/mL streptomycin. Cells were trypsinized twice a week and seeded at a density of 1 × 10^6 per T25 cell culture flask and incubated for 24–48 h in a 37 °C and 10% CO2 to achieve a confluent monolayer.
Cell viability assay: Assays were performed according to international standards: ISO 10993-5:2009(E), Biological evaluation of medical devices, Part 5: Tests for in vitro cytotoxicity. Cell viability were evaluated using the tetrazolium salt [3-(4,5-dimethylthiazol-2-yl)-2,5-diphenyltetrazolium bromide] (Sigma) and mouse fibroblasts L929 cells. For this assay we used only the culture medium, RPMI 1640, without phenol red (Biowest) supplemented with 10% HIFBS, 2 mM L-glutamine (Sigma), 100 U/mL penicillin, 100 μg/mL streptomycin. Shortly after, a 1 × 10^4/well of L929 cells were placed into 96-well plates and incubated in 37 °C and 10% CO2. Afterwards, an old culture medium was replaced by 100 μL of compounds and drugs dilutions in culture medium and the cells were treated for 24 h. Moreover, cells were treated with a 4.0–0.03% concentration of DMSO and 1M NaOH as a compound and drugs solvent (data not shown). Then, 50 μL of 1 mg/mL of MTT solution in RPMI 1640 without phenol red was added to each well and incubated 2h (37 °C, 10% CO2). Next, cell culture medium was aspirated cautiously and 150 μL of DMSO was added to each well, the plates were gently mixed. Then 25 μL 0.1M glycine buffer (pH = 10.5) (Sigma) was added. The optical density at 570 nm on the ELISA reader (Multiskan EX, Labsystems, Vienna, VA, USA), was read. The results were expressed as a percentage of viability compared to untreated cells. All experiments were performed in triplicate. For comparison reasons, two compounds known from our previous studies (6 and 9) were included in the bioassay performed for compounds 5, 7, 8, 9–16.

[4] = Lipophilicity by HPLC (logkw extrapolation, OECD guideline); format: physicochemical; conditions: Phenomenex Synergi 4 µm Polar-RP column, methanol:water, calibration with seven standards
Experimental: HPLC experiments were performed using a chromatograph equipped with an Elite LaChrom L-2130 gradient pump, L-2455 DAD detector, L-2300 column oven, and L-2200 autosampler (Hitachi-Merck, Darmstadt, Germany). The tested samples were applied into the Phenomenex Synergi 4 µm Polar-RP chromatographic column (Phenomenex, Torrance, CA, USA) (150 mm length, 4.6 mm i.d.). Mobile phases were degassed using a built-in membrane degasser.
Chromatographic analysis: 5 µL of each sample (0.1% methanolic solutions) was applied into the chromatographic column and chromatograms were developed at a flow rate of 1.0 mL min^−1 in the isocratic mode using various concentrations of methanol in the binary polar mobile phase: methanol:water (40:60, 45:55, 50:50, 55:45, 60:40, 65:35, and 70:30 (v/v)) Chromatograms were detected at 254 nm. All experiments were repeated in triplicate, and the final results were their arithmetic mean. Dead time was measured for uracil (Calbiochem—Merck, Darmstadt, Germany). All the experiments were performed at ambient temperature.
The chromatographic lipophilicity parameter (logkw) for 5–16 was obtained by the extrapolation of the retention parameter logk to pure water, according to the equation: logk = logkw − S × φ(1) where logkw is the value of the retention factor of a substance in pure water, S is the slope of the regression curve, and φ is the concentration (v/v) of methanol in the mobile phase.
Subsequently, logPHPLC parameters for 5–16 were calculated according to OECD guidelines, based on the equation obtained for seven standards with known lipohilicity parameters (logPo/w): logPo/w = 1.0239(± 0.03)·logkw − 0.1541(± 0.08); n = 7; r = 0.9976; se = 0.08; F = 1047.8(2)

Compound	chromatographic logP [4]	melting point	IC50 [1]	SR (selectivity ratio) [1]	IC50 [2]	SR (selectivity ratio) [2]	viability at 24 h, 5 µg/mL [3]	viability at 24 h, 25 µg/mL [3]	viability at 24 h, 50 µg/mL [3]	viability at 24 h, 125 µg/mL [3]	viability at 24 h, 250 µg/mL [3]	viability at 24 h, 500 µg/mL [3]	viability at 24 h, 1000 µg/mL [3]	CC50 at 24 h [3]
Cc1nc[nH]c1C(=O)NNC(=S)Nc1cccc([N+](=O)[O-])c1 [Compound 1]	–	–	14.78 µg/mL (≈ 46.1 µM)	18 fold	–	–	–	–	–	–	–	–	–	–
Cc1nc[nH]c1C(=O)NNC(=S)Nc1ccc([N+](=O)[O-])cc1 [Compound 2]	–	–	21.62 µg/mL (≈ 67.5 µM)	16 fold	–	–	–	–	–	–	–	–	–	–
Cc1nc[nH]c1C(=O)NNC(=S)Nc1cccc(Cl)c1 [Compound 3]	–	–	25.70 µg/mL (≈ 83 µM)	10 fold	–	–	–	–	–	–	–	–	–	–
Cc1ccc(NC(=S)NNC(=O)c2[nH]cnc2C)cc1Cl [Compound 4]	–	–	18.62 µg/mL (≈ 57.5 µM)	4 fold	–	–	–	–	–	–	–	–	–	–
Cc1nc[nH]c1C(=O)NNC(=S)Nc1ccccc1F [Compound 5]	2.8	–	–	–	≥ 69 µg/mL	6.61	98.1%	97.3%	74.8%	87%	69.3%	64.1%	45.8%	455 µg/mL (≈ 1550 µM)
Cc1nc[nH]c1C(=O)NNC(=S)Nc1ccccc1Cl [Compound 8, 4-(2-Chlorophenyl)-1-(4-methylimidazol-5-oyl)thiosemicarbazide]	3.17	217 to 219 °C	–	–	35.6 µg/mL (≈ 115 µM)	17.69	89.9%	86.3%	78.5%	69.4%	64.8%	57.1%	39.5%	630 µg/mL (≈ 2030 µM)
Cc1nc[nH]c1C(=O)NNC(=S)Nc1cccc(Cl)c1 [Compound 9]	3.51	–	–	–	24.1 µg/mL (≈ 78 µM)	11.30	93.9%	88.5%	75.3%	64.7%	56.7%	30.2%	8.47%	273 µg/mL (≈ 881 µM)
Cc1nc[nH]c1C(=O)NNC(=S)Nc1ccccc1I [Compound 14, 4-(2-Iodophenyl)-1-(4-methylimidazol-5-oyl)thiosemicarbazide]	3.23	–	–	–	20.3 µg/mL (≈ 50.6 µM)	–	95.2%	92.8%	83.7%	65.4%	44.5%	26.1%	25%	199 µg/mL (≈ 496 µM)
Nc1ccc(S(=O)(=O)Nc2ncccn2)cc1 [sulfadiazine, 4-amino-N-(2-pyrimidinyl)benzenesulfonamide, reference compound]	–	–	~ 2721.45 µg/mL	–	> 2500 µg/mL	<0.92	–	–	–	–	–	–	–	> 2500 µg/mL
COc1cc(Cc2cnc(N)nc2N)cc(OC)c1OC [trimethoprim, 2,4-diamino-5-(3,4,5-trimethoxybenzyl)pyrimidine, reference compound]	–	–	–	–	12.1 µg/mL (≈ 41.8 µM)	>2.64	–	–	–	–	–	–	–	> 32 µg/mL

The next lines start with results.

chromatographic logP [4]	melting point	Compound	IC50 [1]	SR (selectivity ratio) [1]	IC50 [2]	SR (selectivity ratio) [2]	viability at 24 h, 5 µg/mL [3]	viability at 24 h, 25 µg/mL [3]	viability at 24 h, 50 µg/mL [3]	viability at 24 h, 125 µg/mL [3]	viability at 24 h, 250 µg/mL [3]	viability at 24 h, 500 µg/mL [3]	viability at 24 h, 1000 µg/mL [3]	CC50 at 24 h [3]
2.99	–	Cc1nc[nH]c1C(=O)NNC(=S)Nc1cccc(F)c1 [Compound 6]	–	–	≥ 69 µg/mL	7.79	96.3%	97.3%	75.4%	64.8%	62.4%	52.3%	35.4%	885 µg/mL (≈ 3020 µM)
2.8	–	Cc1nc[nH]c1C(=O)NNC(=S)Nc1ccc(F)cc1 [Compound 7]	–	–	≥ 69 µg/mL	8.86	103%	103%	89.2%	83.1%	69.9%	61.4%	48.7%	977 µg/mL (≈ 3330 µM)
3.44	–	Cc1nc[nH]c1C(=O)NNC(=S)Nc1ccc(Cl)cc1 [Compound 10]	–	–	≥ 69 µg/mL	3.15	103%	96.3%	70.3%	63.6%	56.6%	23.6%	13.6%	231 µg/mL (≈ 746 µM)
3.71	–	Cc1nc[nH]c1C(=O)NNC(=S)Nc1cccc(Br)c1 [Compound 12, 4-(3-Bromophenyl)-1-(4-methylimidazol-5-oyl)thiosemicarbazide]	–	–	15.6 µg/mL (≈ 44.2 µM)	–	95.3%	89%	74.4%	65.7%	56.8%	20.2%	7.52%	238 µg/mL (≈ 671 µM)
3.64	–	Cc1nc[nH]c1C(=O)NNC(=S)Nc1ccc(Br)cc1 [Compound 13, 4-(4-Bromophenyl)-1-(4-methylimidazol-5-oyl)thiosemicarbazide]	–	–	14.6 µg/mL (≈ 41.1 µM)	–	93.5%	82%	64.1%	56.6%	51.1%	42.1%	30.8%	224 µg/mL (≈ 631 µM)
